Test results as given in paper PMC10042540, “Targeting oncogenic KRasG13C with nucleotide-based covalent inhibitors” (eLife, 2023).

Assays:
SOS = assay: Guanine nucleotide-exchange factor assay (mantdGDP fluorescence); type: biochemical; conditions: 5 µM KRas1-169, 10 µM mantdGDP, 0.25 or 0.5 µM SOS
Method: SOS-catalysed nucleotide exchange was monitored at 25 °C in a FluoroMax-3 spectrofluorometer (excitation at 360 nm, emission at 440 nm) in 20 mM HEPES (pH 7.5), 100 mM NaCl, 2 mM MgCl2, and 1 mM TCEP. 5 µM KRas1-169 was mixed with 10 µM mantdGDP and subsequently with different concentrations of SOS (0.25 µM and 0.5 µM) (Figure 3A; Figure 3—figure supplement 1).

pcRafS338 = assay: Electroporation into HeLa cells, western blot quantification; type: cell-based, human; conditions: for pcRaf mean fold change: mean of cell lysates
Method: (§1) HeLa cells were obtained from the American Type Culture Collection (ATCC) and were cultured in DMEM medium (Gibco) supplemented with 10% fetal bovine serum (FBS) (PAN-Biotech) and 1% penicillin/streptomycin (Gibco). Cells were cultured in a humidified incubator at 37 °C in the presence of 5% CO2. The identity of the cells was validated by STR profiling and the cells were tested negative for mycoplasma contamination.
(§2) Electroporation of full-length KRas constructs (KRasWT, KRasG13C, KRasG13C-edaGDP, KRasG13C:acetyledaGDP and KRasG13C-edaGppCp) was performed based on the protocol described by [Alex et al., 2019] using the Neon Transfection System Kit (Thermo Fisher). For electroporation, 3 million cells per experiment were harvested by trypsinization, washed with PBS, and resuspended in 85 µL of the electroporation buffer R (Thermo Fisher). Increasing amounts of recombinant protein samples for each construct (0, 50, 100, 200 and 300 µg) were diluted 1:1 in buffer R followed by the addition of 30 µL of this protein master mix to the cell suspension. This cellular slurry was loaded into a […] Neon Pipette Tip (Thermo Fisher) and electroporated with 2x35 ms pulses at 1000 V. After electroporation, the cells were washed twice with PBS (15 mL) to remove non-internalized extracellular protein and the cell pellet was resuspended in 2 mL complete growth media. Cells were transferred into six-well tissue culture plates (Sarstedt) and incubated for 24 hr at 37 °C and 5% CO2 in a humidified incubator for recovery before being processed for western blotting analysis.
(§3) After recovery of the electroporation, cells were washed twice with ice-cold PBS and lysed in 100 µL of phosphatase and protease inhibitor containing RIPA buffer (Cell Signaling Technology). Cells were incubated on ice for 30 min and then harvested by scraping followed by centrifugation at 14,000 rpm for 10 min at 4 °C. Protein concentrations were determined using the Pierce BCA protein assay (Thermo) following the manufacturer’s recommended procedure. Equal amounts of protein (10 µg) were analyzed by SDS-PAGE and transferred to Immobilon-FL PVDF membranes (Merck Millipore) using Pierce 1-step transfer buffer (Thermo) and the Pierce Power Blotter (Thermo). Membranes were washed with ddH2O for 5 min, blocked with OdysseyBlocking Buffer TBS (Li-Cor) for 1 hr at room temperature and then incubated with primary antibodies diluted in OdysseyBlocking Buffer TBS overnight at 4 °C with gentle agitation. KRas (Sigma Aldrich, SAB1404011-100UG), pcRafS338 (CST, 9427), tAkt1 (CST, 2938), pAktS473 (CST, 4060), tErk (CST, 4696), pErkT202/Y204 (CST, 4370), pS6S235/236 (CST, 4858), and β-actin (CST, 4970/Sigma-Aldrich, A5441) antibodies were used to detect the individual proteins. After primary antibody incubation, membranes were washed three times with TBS-T (50 mM Tris, 150 mM NaCl, 0.05% Tween 20, pH 7.4) for 5 min before being incubated with secondary antibodies (anti-mouse IgG (H+L) (DyLight 680 Conjugate) (CST, 5470) / anti-rabbit IgG (H+L) (DyLight 800 4 X PEG Conjugate) (CST, 5151)) diluted in OdysseyBlocking Buffer TBS for 1 hr at room temperature with gentle agitation. After secondary antibody incubation, the membranes were washed three times for 5 min with TBS-T and then scanned using an OdysseyCLx imaging system (Li-Cor). Quantification of protein levels from western blots was performed using Empiria Studio (Li-Cor) (Figure 3B, C, Figure 3—figure supplements 6–9).

pS6S235/236 = assay: as above; type: cell-based, human; conditions: for pS6 mean fold change: mean of cell lysates
Method: as §1, §2, §3

pErkT202/Y204 = assay: as above; type: cell-based, human; conditions: for pErk mean fold change: mean of cell lysates
Method: as §1, §2, §3

pAktS473 = assay: as above; type: cell-based, human; conditions: for pAkt mean fold change: mean of cell lysates
Method: as §1, §2, §3

tErk = assay: as above; type: cell-based, human; conditions: for tErk mean fold change: mean of cell lysates
Method: as §1, §2, §3

tAkt1 = assay: as above; type: cell-based, human; conditions: for tAkt mean fold change: mean of cell lysates
Method: as §1, §2, §3

[1] = test system: Ras pathway (pcRaf, pAkt, pErk, pS6); assay: Electroporation into HeLa cells, western blot of downstream signalling; type: cell-based, human; conditions: electroporation of 50-300 µg protein
Method: as §1, §2
After recovery of the electroporation, cells were washed twice with ice-cold PBS and lysed in 100 µL of phosphatase and protease inhibitor containing RIPA buffer (Cell Signaling Technology). Cells were incubated on ice for 30 min and then harvested by scraping followed by centrifugation at 14,000 rpm for 10 min at 4 °C. Protein concentrations were determined using the Pierce BCA protein assay (Thermo) following the manufacturer’s recommended procedure. Equal amounts of protein (10 µg) were analyzed by SDS-PAGE and transferred to Immobilon-FL PVDF membranes (Merck Millipore) using Pierce 1-step transfer buffer (Thermo) and the Pierce Power Blotter (Thermo). Membranes were washed with ddH2O for 5 min, blocked with OdysseyBlocking Buffer TBS (Li-Cor) for 1 hr at room temperature and then incubated with primary antibodies diluted in OdysseyBlocking Buffer TBS overnight at 4 °C with gentle agitation. […] Quantification of protein levels from western blots was performed using Empiria Studio (Li-Cor) (Figure 3B, C, Figure 3—figure supplements 6–9).

KRasG13C-edaGppCp: KRasG13C covalently modified with edaGppCp
SOS-catalysed nucleotide exchange (SOS): no SOS-catalysed nucleotide exchange was observed
pcRaf fold change (pcRafS338; 50 µg, Cell lysate 1): 2.67
pcRaf fold change (pcRafS338; 50 µg, Cell lysate 2): 1.69
pcRaf mean fold change (pcRafS338; 50 µg): 2.18
pcRaf fold change (pcRafS338; 100 µg, Cell lysate 1): 2.60
pcRaf fold change (pcRafS338; 100 µg, Cell lysate 2): 2.10
pcRaf mean fold change (pcRafS338; 100 µg): 2.35
pcRaf fold change (pcRafS338; 200 µg, Cell lysate 1): 2.93
pcRaf fold change (pcRafS338; 200 µg, Cell lysate 2): 3.37
pcRaf mean fold change (pcRafS338; 200 µg): 3.15
pcRaf fold change (pcRafS338; 300 µg, Cell lysate 1): 3.66
pcRaf fold change (pcRafS338; 300 µg, Cell lysate 2): 3.19
pcRaf mean fold change (pcRafS338; 300 µg): 3.43
pS6 fold change (pS6S235/236; 50 µg, Cell lysate 1): 4.20
pS6 fold change (pS6S235/236; 50 µg, Cell lysate 2): 2.51
pS6 mean fold change (pS6S235/236; 50 µg): 3.36
pS6 fold change (pS6S235/236; 100 µg, Cell lysate 1): 2.82
pS6 fold change (pS6S235/236; 100 µg, Cell lysate 2): 2.81
pS6 mean fold change (pS6S235/236; 100 µg): 2.82
pS6 fold change (pS6S235/236; 200 µg, Cell lysate 1): 3.15
pS6 fold change (pS6S235/236; 200 µg, Cell lysate 2): 3.28
pS6 mean fold change (pS6S235/236; 200 µg): 3.22
pS6 fold change (pS6S235/236; 300 µg, Cell lysate 1): 3.41
pS6 fold change (pS6S235/236; 300 µg, Cell lysate 2): 3.61
pS6 mean fold change (pS6S235/236; 300 µg): 3.51
pErk fold change (pErkT202/Y204; 50 µg, Cell lysate 1): 4.72
pErk fold change (pErkT202/Y204; 50 µg, Cell lysate 2): 5.16
pErk mean fold change (pErkT202/Y204; 50 µg): 4.94
pErk fold change (pErkT202/Y204; 100 µg, Cell lysate 1): 7.88
pErk fold change (pErkT202/Y204; 100 µg, Cell lysate 2): 4.30
pErk mean fold change (pErkT202/Y204; 100 µg): 6.09
pErk fold change (pErkT202/Y204; 200 µg, Cell lysate 1): 7.25
pErk fold change (pErkT202/Y204; 200 µg, Cell lysate 2): 5.27
pErk mean fold change (pErkT202/Y204; 200 µg): 6.26
pErk fold change (pErkT202/Y204; 300 µg, Cell lysate 1): 7.62
pErk fold change (pErkT202/Y204; 300 µg, Cell lysate 2): 5.84
pErk mean fold change (pErkT202/Y204; 300 µg): 6.73
pAkt fold change (pAktS473; 50 µg, Cell lysate 1): 2.11
pAkt fold change (pAktS473; 50 µg, Cell lysate 2): 3.13
pAkt mean fold change (pAktS473; 50 µg): 2.62
pAkt fold change (pAktS473; 100 µg, Cell lysate 1): 4.88
pAkt fold change (pAktS473; 100 µg, Cell lysate 2): 6.30
pAkt mean fold change (pAktS473; 100 µg): 5.59
pAkt fold change (pAktS473; 200 µg, Cell lysate 1): 6.55
pAkt fold change (pAktS473; 200 µg, Cell lysate 2): 7.78
pAkt mean fold change (pAktS473; 200 µg): 7.17
pAkt fold change (pAktS473; 300 µg, Cell lysate 1): 6.53
pAkt fold change (pAktS473; 300 µg, Cell lysate 2): 5.20
pAkt mean fold change (pAktS473; 300 µg): 5.87
tErk fold change (tErk; 50 µg, Cell lysate 1): 1.12
tErk fold change (tErk; 50 µg, Cell lysate 2): 1.11
tErk mean fold change (tErk; 50 µg): 1.12
tErk fold change (tErk; 100 µg, Cell lysate 1): 1.29
tErk fold change (tErk; 100 µg, Cell lysate 2): 1.14
tErk mean fold change (tErk; 100 µg): 1.21
tErk fold change (tErk; 200 µg, Cell lysate 1): 1.21
tErk fold change (tErk; 200 µg, Cell lysate 2): 1.17
tErk mean fold change (tErk; 200 µg): 1.19
tErk fold change (tErk; 300 µg, Cell lysate 1): 1.69
tErk fold change (tErk; 300 µg, Cell lysate 2): 1.50
tErk mean fold change (tErk; 300 µg): 1.60
tAkt fold change (tAkt1; 50 µg, Cell lysate 1): 1.35
tAkt fold change (tAkt1; 50 µg, Cell lysate 2): 1.53
tAkt mean fold change (tAkt1; 50 µg): 1.44
tAkt fold change (tAkt1; 100 µg, Cell lysate 1): 1.30
tAkt fold change (tAkt1; 100 µg, Cell lysate 2): 1.69
tAkt mean fold change (tAkt1; 100 µg): 1.50
tAkt fold change (tAkt1; 200 µg, Cell lysate 1): 1.09
tAkt fold change (tAkt1; 200 µg, Cell lysate 2): 1.67
tAkt mean fold change (tAkt1; 200 µg): 1.38
tAkt fold change (tAkt1; 300 µg, Cell lysate 1): 0.94
tAkt fold change (tAkt1; 300 µg, Cell lysate 2): 1.47
tAkt mean fold change (tAkt1; 300 µg): 1.20
downstream signalling (pcRaf, pAkt, pErk, pS6) [1]: activation of the Ras pathway comparable to KRasG13C was observed
